Results: the NIST ThermoML archive (doi:10.1016/j.jct.2015.03.022)
Numbers after ± are expanded uncertainties.

Details: Crystal; DTA

Row | Normal melting temperature | Structure (SMILES)
1 | 559 ± 0.6 °C | [Ag][I] [silver iodide]
2 | 551 ± 0.6 °C | [Br-].[Li+] [lithium bromide]
3 | 844 ± 0.6 °C | [F-].[Li+] [lithium fluoride]
